Test results taken from patent publication US20230343467A1, “SYSTEMS AND METHODS FOR IDENTIFICATION OF CELL LINES, BIOMARKERS, AND PATIENTS FOR DRUG RESPONSE PREDICTION” (THERAINDX LIFESCIENCES PVT LTD, priority 2020, published 2023).

How the values were obtained:
MDAMB231 = assay: In vitro potency (IC50) of Palbociclib on breast cancer cell line; type: cell-based; details: Homo sapiens, MDA-MB-231, read-out: Observed IC50
From the text: (§1) Palbociclib, a targeted inhibitor of CDK4/6 indicated for breast cancer. Identification of Human Breast Cancer cell lines sensitive and resistant to Palbociclib using the method 300 for drug discovery and development, particularly for identification, selection and validation of Human Cancer Cell lines and Biomarkers based on Pharmacological Target(s). A comparison of Predicted Efficacy with Observed Efficacy in cell lines/patients is provided. The pharmacological target is Ser/Thr-kinase component of cyclin D-CDK4/6, which inhibits CDK4/6 phosphorylation of retinoblastoma (RB) protein family (RB1). The phenotypic end point of which is the inhibition of cell proliferation. Further, the Breast Cancer Cell Lines are selected based on the multi-omics and pathway regulator status. […] The predicted response (sensitivity or resistance to Palbociclib) was compared with cell line in vitro potency data (IC50) of Palbociclib. The predicted responses were in agreement with observed data (IC50) for Palbociclib's activity on various Human Breast Cancer cell lines. Table 6a and 6b show the comparison of predicted response values, for both sensitive and resistant to Palbociclib, with observed data.

HCC1569 = assay: as above; type: cell-based; details: Homo sapiens, read-out: Observed IC50
From the text: as §1

MDAMB468 = assay: as above; type: cell-based; details: Homo sapiens, MDA-MB-468, read-out: Observed IC50
From the text: as §1

DU4475 = assay: as above; type: cell-based; details: Homo sapiens, DU-4475, read-out: Observed IC50
From the text: as §1

MDAMB157 = assay: as above; type: cell-based; details: Homo sapiens, MDA-MB-157, read-out: Observed IC50
From the text: as §1

EFM19 = assay: as above; type: cell-based; details: Homo sapiens, EFM-19, read-out: Observed IC50
From the text: as §1

MCF7 = assay: as above; type: cell-based; details: Homo sapiens, read-out: Observed IC50
From the text: as §1

MDAMB361 = assay: as above; type: cell-based; details: Homo sapiens, MDA-MB-361, read-out: Observed IC50
From the text: as §1

HCC2157 = assay: as above; type: cell-based; details: Homo sapiens, read-out: Observed IC50
From the text: as §1

HCC1500 = assay: as above; type: cell-based; details: Homo sapiens, read-out: Observed IC50
From the text: as §1

[1] = test system: cell line population with amplified ABCB4; assay: Response curves (IC50 values) of cell line populations, transporter amplified vs wildtype, vincristine; details: IC50 values for 530 cell lines from Cancerrx
From the text: (§2) The drug transporter identification module 205 allows identification of co-relating genomic factors such as factors affecting drug transporters, transporter genes, or any alterations therein such as transporter gene amplification including copy number alterations ([…]), increased m-RNA expressions, etc. particularly associated with multidrug resistance (MDR) development. The drug transporter identification module 205 allows identifying drug transporter factors that impact the efficacy of the drug of interest using in vitro sensitivity data, during pre-clinical phase of drug development. […] Drug transporters such as solute carrier (SLC) family and ATP-binding cassette (ABC) family are known to function as drug efflux pumps which contribute towards drug resistance and reduced bioavailability. The method, in various embodiments herein use in vitro sensitivity data in identification of MDR transporter genes during pre-clinical phase of drug development. In an embodiment, in vitro sensitivity data for chemo therapeutic drug, vincristine (particularly cell line-specific IC50 values for 530 cell lines), from cancerrx (database of genomics of drug sensitivity), and cell multi-omics characteristics, from Cancer Cell Line Encyclopedia (CCLE) were used as inputs for the stratification algorithm. […]

[2] = test system: cell line population with amplified ABCB1; assay: as above; details: IC50 values for 530 cell lines from Cancerrx
From the text: as §2

CC(=O)c1c(C)c2cnc(Nc3ccc(N4CCNCC4)cn3)nc2n(C2CCCC2)c1=O [Palbociclib]
IC50 (MDAMB231): 432 nM | IC50 (HCC1569): > 1000 nM | IC50 (MDAMB468): > 1000 nM | IC50 (DU4475): > 1000 nM | IC50 (MDAMB157): > 1000 nM | IC50 (EFM19): 27 nM | IC50 (MCF7): 148 nM | IC50 (MDAMB361): 44 nM | IC50 (HCC2157): > 1000 nM | IC50 (HCC1500): 45 nM

CC[C@]1(O)C[C@H]2CN(CCc3c([nH]c4ccccc34)[C@@](C(=O)OC)(c3cc4c(cc3OC)N(C=O)[C@H]3[C@@](O)(C(=O)OC)[C@H](OC(C)=O)[C@]5(CC)C=CCN6CC[C@]43[C@@H]65)C2)C1 [vincristine]
Efficacy in cell line population with ABCB4 amplification compared to wildtype (median of response curves) [1]: lower efficacy | Efficacy in cell line population with ABCB1 amplification compared to wildtype (median of response curves) [2]: lesser efficacy
